From ChEMBL document CHEMBL3991601, “The target landscape of clinical kinase drugs” (Science, 2017)
Activity calls are given as the source filed them. Rule as the data show it, for most assays here: actives have a measured Kd and inactives only a lower limit.

Each compound was assayed against T1, Activin receptor type-1B (Homo sapiens, UniProt P36896).
T1 sequence (P36896 whole entry): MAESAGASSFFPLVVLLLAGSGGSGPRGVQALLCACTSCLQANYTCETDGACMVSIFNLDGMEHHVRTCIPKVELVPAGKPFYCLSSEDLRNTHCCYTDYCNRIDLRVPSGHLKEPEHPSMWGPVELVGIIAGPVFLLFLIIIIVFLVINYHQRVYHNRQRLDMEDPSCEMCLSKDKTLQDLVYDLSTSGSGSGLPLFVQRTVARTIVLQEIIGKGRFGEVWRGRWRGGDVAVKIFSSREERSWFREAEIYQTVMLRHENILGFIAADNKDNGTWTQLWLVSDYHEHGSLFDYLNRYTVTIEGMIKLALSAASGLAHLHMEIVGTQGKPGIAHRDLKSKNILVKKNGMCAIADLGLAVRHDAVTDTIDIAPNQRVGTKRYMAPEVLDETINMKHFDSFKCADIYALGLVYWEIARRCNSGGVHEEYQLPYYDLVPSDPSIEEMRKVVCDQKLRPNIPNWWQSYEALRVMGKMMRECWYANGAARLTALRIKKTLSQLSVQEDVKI
Also: in the data inactive means no Kd found up to 30 µM.

| Compound | Kd |
| --- | --- |
| Cc1ccc(-n2nc(C(C)(C)C)cc2NC(=O)NCc2cc(F)ccc2Oc2ccc3c(cnn3CCO)c2)cc1 [PEXMETINIB] | > 30 µM (inactive) |
| CNC(=O)c1cc(Oc2ccc(NC(=O)Nc3ccc(Cl)c(C(F)(F)F)c3)c(F)c2)ccn1 [REGORAFENIB] | > 30 µM (inactive) |
| CN(C)C(=O)c1cc2cnc(Nc3ccc(N4CCNCC4)cn3)nc2n1C1CCCC1 [RIBOCICLIB] | > 30 µM (inactive) |
| COc1cc(OC)c(/C=C/S(=O)(=O)Cc2ccc(OC)c(NCC(=O)O)c2)c(OC)c1 [RIGOSERTIB] | > 30 µM (inactive) |

What follows are compounds tested against Serine/threonine-protein kinase MRCK alpha (Homo sapiens, UniProt Q5VT25).
Serine/threonine-protein kinase MRCK alpha, sequence (Q5VT25 whole entry): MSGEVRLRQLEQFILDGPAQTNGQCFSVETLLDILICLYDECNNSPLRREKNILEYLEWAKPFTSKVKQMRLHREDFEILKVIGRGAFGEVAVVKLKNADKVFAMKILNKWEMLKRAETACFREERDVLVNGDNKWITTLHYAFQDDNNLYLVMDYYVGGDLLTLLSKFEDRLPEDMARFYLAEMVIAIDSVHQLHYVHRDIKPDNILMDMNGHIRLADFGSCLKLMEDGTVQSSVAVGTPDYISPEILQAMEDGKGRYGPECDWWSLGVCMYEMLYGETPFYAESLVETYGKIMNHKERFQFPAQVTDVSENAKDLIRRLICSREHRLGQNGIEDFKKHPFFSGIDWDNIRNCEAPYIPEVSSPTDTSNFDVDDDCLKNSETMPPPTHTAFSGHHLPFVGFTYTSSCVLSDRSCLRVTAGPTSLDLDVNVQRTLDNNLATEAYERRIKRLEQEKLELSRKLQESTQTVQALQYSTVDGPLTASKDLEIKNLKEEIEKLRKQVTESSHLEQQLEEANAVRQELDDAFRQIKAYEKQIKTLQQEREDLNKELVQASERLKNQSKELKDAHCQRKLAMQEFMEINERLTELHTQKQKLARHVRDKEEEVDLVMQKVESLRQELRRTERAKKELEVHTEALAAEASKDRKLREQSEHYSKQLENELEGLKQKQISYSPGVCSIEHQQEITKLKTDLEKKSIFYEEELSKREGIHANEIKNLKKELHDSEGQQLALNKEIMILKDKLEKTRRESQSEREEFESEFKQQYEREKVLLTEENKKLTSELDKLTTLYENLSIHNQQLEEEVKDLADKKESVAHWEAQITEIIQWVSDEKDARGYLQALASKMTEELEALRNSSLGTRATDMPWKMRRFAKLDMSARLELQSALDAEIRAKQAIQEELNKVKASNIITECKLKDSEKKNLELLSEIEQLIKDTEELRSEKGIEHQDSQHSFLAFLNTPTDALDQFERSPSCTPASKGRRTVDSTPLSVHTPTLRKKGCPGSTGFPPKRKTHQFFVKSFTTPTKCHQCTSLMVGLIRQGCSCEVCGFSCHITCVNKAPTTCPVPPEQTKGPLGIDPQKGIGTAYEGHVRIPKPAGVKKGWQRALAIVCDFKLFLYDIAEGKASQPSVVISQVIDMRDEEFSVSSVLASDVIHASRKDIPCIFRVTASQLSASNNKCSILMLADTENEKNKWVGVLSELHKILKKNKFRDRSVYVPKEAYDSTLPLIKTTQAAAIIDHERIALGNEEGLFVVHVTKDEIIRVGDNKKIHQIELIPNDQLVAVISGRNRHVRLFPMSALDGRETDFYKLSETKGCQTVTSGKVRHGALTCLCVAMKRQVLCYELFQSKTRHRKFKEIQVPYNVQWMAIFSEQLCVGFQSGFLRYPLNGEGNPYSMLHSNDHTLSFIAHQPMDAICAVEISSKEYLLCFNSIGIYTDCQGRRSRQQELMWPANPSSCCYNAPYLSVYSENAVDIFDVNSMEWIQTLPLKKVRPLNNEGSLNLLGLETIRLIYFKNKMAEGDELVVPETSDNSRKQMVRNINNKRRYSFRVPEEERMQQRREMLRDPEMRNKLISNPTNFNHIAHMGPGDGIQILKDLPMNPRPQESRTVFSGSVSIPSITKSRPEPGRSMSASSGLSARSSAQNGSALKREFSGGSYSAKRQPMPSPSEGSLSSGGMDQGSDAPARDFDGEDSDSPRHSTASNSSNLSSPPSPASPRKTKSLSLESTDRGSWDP

| Compound | Kd |
| --- | --- |
| Cc1ccc(-n2nc(C(C)(C)C)cc2NC(=O)NCc2cc(F)ccc2Oc2ccc3c(cnn3CCO)c2)cc1 [PEXMETINIB] | > 30 µM (inactive) |
| CNC(=O)c1cc(Oc2ccc(NC(=O)Nc3ccc(Cl)c(C(F)(F)F)c3)c(F)c2)ccn1 [REGORAFENIB] | > 30 µM (inactive) |
| CN(C)C(=O)c1cc2cnc(Nc3ccc(N4CCNCC4)cn3)nc2n1C1CCCC1 [RIBOCICLIB] | > 30 µM (inactive) |
| COc1cc(OC)c(/C=C/S(=O)(=O)Cc2ccc(OC)c(NCC(=O)O)c2)c(OC)c1 [RIGOSERTIB] | > 30 µM (inactive) |

Each compound was assayed against Casein kinase I isoform epsilon (Homo sapiens, UniProt P49674).

| Compound | Kd |
| --- | --- |
| Cc1ccc(-n2nc(C(C)(C)C)cc2NC(=O)NCc2cc(F)ccc2Oc2ccc3c(cnn3CCO)c2)cc1 [PEXMETINIB] | > 30 µM (inactive) |
| CNC(=O)c1cc(Oc2ccc(NC(=O)Nc3ccc(Cl)c(C(F)(F)F)c3)c(F)c2)ccn1 [REGORAFENIB] | > 30 µM (inactive) |
| CN(C)C(=O)c1cc2cnc(Nc3ccc(N4CCNCC4)cn3)nc2n1C1CCCC1 [RIBOCICLIB] | > 30 µM (inactive) |
| COc1cc(OC)c(/C=C/S(=O)(=O)Cc2ccc(OC)c(NCC(=O)O)c2)c(OC)c1 [RIGOSERTIB] | > 30 µM (inactive) |

Each compound was assayed against Eukaryotic translation initiation factor 2-alpha kinase 1 (Homo sapiens, UniProt Q9BQI3).
Eukaryotic translation initiation factor 2-alpha kinase 1, sequence (Q9BQI3 whole entry): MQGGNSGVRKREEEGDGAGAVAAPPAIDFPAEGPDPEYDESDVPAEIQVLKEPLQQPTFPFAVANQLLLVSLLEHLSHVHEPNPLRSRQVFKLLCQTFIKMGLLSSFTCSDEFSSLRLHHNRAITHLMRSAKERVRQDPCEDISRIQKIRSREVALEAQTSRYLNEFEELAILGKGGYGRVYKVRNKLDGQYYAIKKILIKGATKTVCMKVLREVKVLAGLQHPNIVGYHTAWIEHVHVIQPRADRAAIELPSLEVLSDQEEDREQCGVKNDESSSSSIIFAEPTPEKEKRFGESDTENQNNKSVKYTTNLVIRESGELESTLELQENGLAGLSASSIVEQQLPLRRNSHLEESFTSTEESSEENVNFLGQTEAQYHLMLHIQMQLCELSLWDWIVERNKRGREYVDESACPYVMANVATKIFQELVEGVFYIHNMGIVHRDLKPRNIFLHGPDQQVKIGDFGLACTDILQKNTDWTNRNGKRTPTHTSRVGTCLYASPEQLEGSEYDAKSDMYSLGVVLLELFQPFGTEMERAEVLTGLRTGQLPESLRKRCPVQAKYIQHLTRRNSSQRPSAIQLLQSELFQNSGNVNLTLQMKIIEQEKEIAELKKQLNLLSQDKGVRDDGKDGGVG

| Compound | Kd |
| --- | --- |
| Cc1ccc(-n2nc(C(C)(C)C)cc2NC(=O)NCc2cc(F)ccc2Oc2ccc3c(cnn3CCO)c2)cc1 [PEXMETINIB] | > 30 µM (inactive) |
| CNC(=O)c1cc(Oc2ccc(NC(=O)Nc3ccc(Cl)c(C(F)(F)F)c3)c(F)c2)ccn1 [REGORAFENIB] | > 30 µM (inactive) |
| CN(C)C(=O)c1cc2cnc(Nc3ccc(N4CCNCC4)cn3)nc2n1C1CCCC1 [RIBOCICLIB] | > 30 µM (inactive) |
| COc1cc(OC)c(/C=C/S(=O)(=O)Cc2ccc(OC)c(NCC(=O)O)c2)c(OC)c1 [RIGOSERTIB] | > 30 µM (inactive) |

Each compound was assayed against Tyrosine-protein kinase FRK (Homo sapiens, UniProt P42685).
Tyrosine-protein kinase FRK, sequence (P42685 whole entry): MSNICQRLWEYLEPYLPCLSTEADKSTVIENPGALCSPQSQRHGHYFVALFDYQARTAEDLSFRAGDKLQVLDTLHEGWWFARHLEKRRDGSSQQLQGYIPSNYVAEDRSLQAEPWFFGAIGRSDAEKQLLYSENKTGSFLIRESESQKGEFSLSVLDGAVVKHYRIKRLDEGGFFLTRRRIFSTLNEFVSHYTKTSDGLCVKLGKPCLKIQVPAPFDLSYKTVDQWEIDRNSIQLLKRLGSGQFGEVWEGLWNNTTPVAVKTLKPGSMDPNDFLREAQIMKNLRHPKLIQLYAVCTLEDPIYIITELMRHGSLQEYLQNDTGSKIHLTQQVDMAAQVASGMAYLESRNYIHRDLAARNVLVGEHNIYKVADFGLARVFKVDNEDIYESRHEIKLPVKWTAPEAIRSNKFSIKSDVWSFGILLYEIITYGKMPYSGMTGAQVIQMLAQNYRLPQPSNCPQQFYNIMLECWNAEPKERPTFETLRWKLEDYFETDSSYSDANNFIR

| Compound | Kd |
| --- | --- |
| Cc1ccc(-n2nc(C(C)(C)C)cc2NC(=O)NCc2cc(F)ccc2Oc2ccc3c(cnn3CCO)c2)cc1 [PEXMETINIB] | 1.55 µM (active) |
| CNC(=O)c1cc(Oc2ccc(NC(=O)Nc3ccc(Cl)c(C(F)(F)F)c3)c(F)c2)ccn1 [REGORAFENIB] | > 30 µM (inactive) |
| CN(C)C(=O)c1cc2cnc(Nc3ccc(N4CCNCC4)cn3)nc2n1C1CCCC1 [RIBOCICLIB] | > 30 µM (inactive) |
| COc1cc(OC)c(/C=C/S(=O)(=O)Cc2ccc(OC)c(NCC(=O)O)c2)c(OC)c1 [RIGOSERTIB] | > 30 µM (inactive) |

What follows are compounds tested against Dual specificity mitogen-activated protein kinase kinase 1 (Homo sapiens, UniProt Q02750).
Dual specificity mitogen-activated protein kinase kinase 1, sequence (Q02750 whole entry): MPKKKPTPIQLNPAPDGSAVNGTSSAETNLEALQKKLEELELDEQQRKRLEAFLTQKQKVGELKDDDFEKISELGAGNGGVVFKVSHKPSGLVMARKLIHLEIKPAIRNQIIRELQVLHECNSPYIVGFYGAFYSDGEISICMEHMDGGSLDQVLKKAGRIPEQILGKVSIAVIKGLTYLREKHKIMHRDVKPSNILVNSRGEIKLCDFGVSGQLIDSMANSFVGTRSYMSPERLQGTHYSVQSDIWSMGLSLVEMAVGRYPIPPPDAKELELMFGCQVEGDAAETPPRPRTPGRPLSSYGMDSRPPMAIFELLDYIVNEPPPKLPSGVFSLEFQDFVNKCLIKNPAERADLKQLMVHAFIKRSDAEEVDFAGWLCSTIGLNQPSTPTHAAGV

| Compound | Kd |
| --- | --- |
| Cc1ccc(-n2nc(C(C)(C)C)cc2NC(=O)NCc2cc(F)ccc2Oc2ccc3c(cnn3CCO)c2)cc1 [PEXMETINIB] | > 30 µM (inactive) |
| CNC(=O)c1cc(Oc2ccc(NC(=O)Nc3ccc(Cl)c(C(F)(F)F)c3)c(F)c2)ccn1 [REGORAFENIB] | > 30 µM (inactive) |
| CN(C)C(=O)c1cc2cnc(Nc3ccc(N4CCNCC4)cn3)nc2n1C1CCCC1 [RIBOCICLIB] | > 30 µM (inactive) |
| COc1cc(OC)c(/C=C/S(=O)(=O)Cc2ccc(OC)c(NCC(=O)O)c2)c(OC)c1 [RIGOSERTIB] | > 30 µM (inactive) |

Each compound was assayed against Mitogen-activated protein kinase 9 (Homo sapiens, UniProt P45984).
Mitogen-activated protein kinase 9, sequence (P45984 whole entry): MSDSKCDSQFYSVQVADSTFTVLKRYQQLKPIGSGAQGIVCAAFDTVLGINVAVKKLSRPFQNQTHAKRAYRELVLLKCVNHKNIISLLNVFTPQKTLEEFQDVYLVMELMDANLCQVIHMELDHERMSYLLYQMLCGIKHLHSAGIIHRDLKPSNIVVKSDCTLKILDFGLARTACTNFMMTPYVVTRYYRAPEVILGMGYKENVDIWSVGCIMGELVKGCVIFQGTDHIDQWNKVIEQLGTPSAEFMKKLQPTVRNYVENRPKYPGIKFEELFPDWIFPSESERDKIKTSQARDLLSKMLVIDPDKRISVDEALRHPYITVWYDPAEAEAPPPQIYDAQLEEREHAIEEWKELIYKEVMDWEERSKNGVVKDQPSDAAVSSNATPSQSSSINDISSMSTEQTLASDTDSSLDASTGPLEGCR

| Compound | Kd |
| --- | --- |
| Cc1ccc(-n2nc(C(C)(C)C)cc2NC(=O)NCc2cc(F)ccc2Oc2ccc3c(cnn3CCO)c2)cc1 [PEXMETINIB] | 0.312 µM (active) |
| CNC(=O)c1cc(Oc2ccc(NC(=O)Nc3ccc(Cl)c(C(F)(F)F)c3)c(F)c2)ccn1 [REGORAFENIB] | > 30 µM (inactive) |
| CN(C)C(=O)c1cc2cnc(Nc3ccc(N4CCNCC4)cn3)nc2n1C1CCCC1 [RIBOCICLIB] | > 30 µM (inactive) |
| COc1cc(OC)c(/C=C/S(=O)(=O)Cc2ccc(OC)c(NCC(=O)O)c2)c(OC)c1 [RIGOSERTIB] | > 30 µM (inactive) |

What follows are compounds tested against NADH dehydrogenase [ubiquinone] 1 alpha subcomplex subunit 13 (Homo sapiens, UniProt Q9P0J0).
NADH dehydrogenase [ubiquinone] 1 alpha subcomplex subunit 13, sequence (Q9P0J0 whole entry, one chain of several): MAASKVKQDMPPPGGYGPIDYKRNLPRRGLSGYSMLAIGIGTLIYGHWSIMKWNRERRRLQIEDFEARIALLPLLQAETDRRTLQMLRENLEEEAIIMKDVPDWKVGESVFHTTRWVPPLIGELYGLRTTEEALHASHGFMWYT

| Compound | Kd |
| --- | --- |
| Cc1ccc(-n2nc(C(C)(C)C)cc2NC(=O)NCc2cc(F)ccc2Oc2ccc3c(cnn3CCO)c2)cc1 [PEXMETINIB] | > 30 µM (inactive) |
| CNC(=O)c1cc(Oc2ccc(NC(=O)Nc3ccc(Cl)c(C(F)(F)F)c3)c(F)c2)ccn1 [REGORAFENIB] | > 30 µM (inactive) |
| CN(C)C(=O)c1cc2cnc(Nc3ccc(N4CCNCC4)cn3)nc2n1C1CCCC1 [RIBOCICLIB] | > 30 µM (inactive) |
| COc1cc(OC)c(/C=C/S(=O)(=O)Cc2ccc(OC)c(NCC(=O)O)c2)c(OC)c1 [RIGOSERTIB] | > 30 µM (inactive) |

The compounds below were run against T2, Serine/threonine-protein kinase NLK (Homo sapiens, UniProt Q9UBE8).
T2 sequence (Q9UBE8 whole entry): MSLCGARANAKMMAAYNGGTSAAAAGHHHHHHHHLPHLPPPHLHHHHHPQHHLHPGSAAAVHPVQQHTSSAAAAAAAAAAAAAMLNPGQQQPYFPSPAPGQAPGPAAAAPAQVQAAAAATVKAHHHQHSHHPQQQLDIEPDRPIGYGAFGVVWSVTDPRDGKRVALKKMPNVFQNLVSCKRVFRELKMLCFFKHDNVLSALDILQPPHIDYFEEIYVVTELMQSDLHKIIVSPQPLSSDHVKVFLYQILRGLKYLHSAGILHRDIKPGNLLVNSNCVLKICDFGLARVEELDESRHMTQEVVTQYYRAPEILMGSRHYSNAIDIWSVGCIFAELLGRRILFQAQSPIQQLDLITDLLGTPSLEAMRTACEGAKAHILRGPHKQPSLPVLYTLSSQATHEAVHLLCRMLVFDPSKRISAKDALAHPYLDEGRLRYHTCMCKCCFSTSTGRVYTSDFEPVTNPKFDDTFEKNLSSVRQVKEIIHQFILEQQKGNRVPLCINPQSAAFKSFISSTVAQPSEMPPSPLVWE

| Compound | Kd |
| --- | --- |
| Cc1ccc(-n2nc(C(C)(C)C)cc2NC(=O)NCc2cc(F)ccc2Oc2ccc3c(cnn3CCO)c2)cc1 [PEXMETINIB] | > 30 µM (inactive) |
| CNC(=O)c1cc(Oc2ccc(NC(=O)Nc3ccc(Cl)c(C(F)(F)F)c3)c(F)c2)ccn1 [REGORAFENIB] | > 30 µM (inactive) |
| CN(C)C(=O)c1cc2cnc(Nc3ccc(N4CCNCC4)cn3)nc2n1C1CCCC1 [RIBOCICLIB] | > 30 µM (inactive) |
| COc1cc(OC)c(/C=C/S(=O)(=O)Cc2ccc(OC)c(NCC(=O)O)c2)c(OC)c1 [RIGOSERTIB] | > 30 µM (inactive) |

Each compound was assayed against Serine/threonine-protein kinase N1 (Homo sapiens, UniProt Q16512).
Serine/threonine-protein kinase N1, sequence (Q16512 whole entry): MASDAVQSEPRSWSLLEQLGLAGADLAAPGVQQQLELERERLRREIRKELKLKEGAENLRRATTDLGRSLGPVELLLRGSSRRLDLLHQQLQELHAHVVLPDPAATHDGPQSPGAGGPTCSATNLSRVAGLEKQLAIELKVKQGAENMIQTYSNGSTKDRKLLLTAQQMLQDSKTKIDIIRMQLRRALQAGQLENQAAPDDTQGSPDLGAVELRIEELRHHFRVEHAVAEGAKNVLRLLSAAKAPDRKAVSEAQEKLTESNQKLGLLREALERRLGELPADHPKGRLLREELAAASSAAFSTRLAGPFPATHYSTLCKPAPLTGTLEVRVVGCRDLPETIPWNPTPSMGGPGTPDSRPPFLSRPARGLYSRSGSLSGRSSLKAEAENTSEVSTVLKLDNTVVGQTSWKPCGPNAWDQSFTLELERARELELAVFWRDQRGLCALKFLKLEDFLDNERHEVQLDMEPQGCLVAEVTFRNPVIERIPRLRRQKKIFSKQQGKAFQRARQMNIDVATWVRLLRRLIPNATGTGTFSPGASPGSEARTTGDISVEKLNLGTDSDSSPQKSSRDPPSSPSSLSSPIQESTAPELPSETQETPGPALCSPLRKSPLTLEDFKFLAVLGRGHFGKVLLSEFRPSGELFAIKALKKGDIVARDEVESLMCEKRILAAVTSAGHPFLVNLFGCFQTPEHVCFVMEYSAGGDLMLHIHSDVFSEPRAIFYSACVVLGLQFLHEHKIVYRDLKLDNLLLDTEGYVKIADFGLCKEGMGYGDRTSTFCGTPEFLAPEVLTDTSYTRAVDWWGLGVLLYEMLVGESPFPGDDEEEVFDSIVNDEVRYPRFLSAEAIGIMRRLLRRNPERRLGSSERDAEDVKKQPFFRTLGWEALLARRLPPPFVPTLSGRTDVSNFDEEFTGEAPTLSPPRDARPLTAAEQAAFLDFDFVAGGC

| Compound | Kd |
| --- | --- |
| Cc1ccc(-n2nc(C(C)(C)C)cc2NC(=O)NCc2cc(F)ccc2Oc2ccc3c(cnn3CCO)c2)cc1 [PEXMETINIB] | > 30 µM (inactive) |
| CNC(=O)c1cc(Oc2ccc(NC(=O)Nc3ccc(Cl)c(C(F)(F)F)c3)c(F)c2)ccn1 [REGORAFENIB] | > 30 µM (inactive) |
| CN(C)C(=O)c1cc2cnc(Nc3ccc(N4CCNCC4)cn3)nc2n1C1CCCC1 [RIBOCICLIB] | > 30 µM (inactive) |
| COc1cc(OC)c(/C=C/S(=O)(=O)Cc2ccc(OC)c(NCC(=O)O)c2)c(OC)c1 [RIGOSERTIB] | > 30 µM (inactive) |

Each compound was assayed against T3, Septin-9 (Homo sapiens, UniProt Q9UHD8).
T3 sequence (Q9UHD8 whole entry): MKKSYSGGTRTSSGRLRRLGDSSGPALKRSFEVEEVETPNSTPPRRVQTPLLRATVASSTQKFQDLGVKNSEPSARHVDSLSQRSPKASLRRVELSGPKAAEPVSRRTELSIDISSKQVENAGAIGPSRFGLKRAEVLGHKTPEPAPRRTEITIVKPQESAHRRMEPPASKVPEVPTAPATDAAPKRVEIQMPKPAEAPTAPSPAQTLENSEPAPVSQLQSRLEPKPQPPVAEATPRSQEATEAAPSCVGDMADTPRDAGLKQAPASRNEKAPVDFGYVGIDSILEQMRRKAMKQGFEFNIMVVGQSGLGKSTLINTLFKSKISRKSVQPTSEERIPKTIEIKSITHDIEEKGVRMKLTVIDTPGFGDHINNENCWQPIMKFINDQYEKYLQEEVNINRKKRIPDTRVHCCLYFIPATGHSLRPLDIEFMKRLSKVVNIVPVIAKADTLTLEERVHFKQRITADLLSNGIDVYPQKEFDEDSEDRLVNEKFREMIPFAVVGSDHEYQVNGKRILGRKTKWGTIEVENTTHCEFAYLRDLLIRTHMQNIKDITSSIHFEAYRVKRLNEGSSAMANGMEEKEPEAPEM

| Compound | Kd |
| --- | --- |
| Cc1ccc(-n2nc(C(C)(C)C)cc2NC(=O)NCc2cc(F)ccc2Oc2ccc3c(cnn3CCO)c2)cc1 [PEXMETINIB] | > 30 µM (inactive) |
| CNC(=O)c1cc(Oc2ccc(NC(=O)Nc3ccc(Cl)c(C(F)(F)F)c3)c(F)c2)ccn1 [REGORAFENIB] | > 30 µM (inactive) |
| CN(C)C(=O)c1cc2cnc(Nc3ccc(N4CCNCC4)cn3)nc2n1C1CCCC1 [RIBOCICLIB] | > 30 µM (inactive) |
| COc1cc(OC)c(/C=C/S(=O)(=O)Cc2ccc(OC)c(NCC(=O)O)c2)c(OC)c1 [RIGOSERTIB] | > 30 µM (inactive) |

What follows are compounds tested against Elongation factor Tu, mitochondrial (Homo sapiens, UniProt P49411).

| Compound | Kd |
| --- | --- |
| Cc1ccc(-n2nc(C(C)(C)C)cc2NC(=O)NCc2cc(F)ccc2Oc2ccc3c(cnn3CCO)c2)cc1 [PEXMETINIB] | > 30 µM (inactive) |
| CNC(=O)c1cc(Oc2ccc(NC(=O)Nc3ccc(Cl)c(C(F)(F)F)c3)c(F)c2)ccn1 [REGORAFENIB] | > 30 µM (inactive) |
| CN(C)C(=O)c1cc2cnc(Nc3ccc(N4CCNCC4)cn3)nc2n1C1CCCC1 [RIBOCICLIB] | > 30 µM (inactive) |
| COc1cc(OC)c(/C=C/S(=O)(=O)Cc2ccc(OC)c(NCC(=O)O)c2)c(OC)c1 [RIGOSERTIB] | > 30 µM (inactive) |
